The text below walks through data of BindingDB's records for doi:10.1016/0014-2999(93)90488-4 (Maryland Psychiatric Research Center, 1993).

The target of one test is D(2) dopamine receptor (Homo sapiens, UniProt P14416).
Another test concerns the target T1, D(4) dopamine receptor (Homo sapiens, UniProt P21917).
T1 sequence (P21917 whole entry): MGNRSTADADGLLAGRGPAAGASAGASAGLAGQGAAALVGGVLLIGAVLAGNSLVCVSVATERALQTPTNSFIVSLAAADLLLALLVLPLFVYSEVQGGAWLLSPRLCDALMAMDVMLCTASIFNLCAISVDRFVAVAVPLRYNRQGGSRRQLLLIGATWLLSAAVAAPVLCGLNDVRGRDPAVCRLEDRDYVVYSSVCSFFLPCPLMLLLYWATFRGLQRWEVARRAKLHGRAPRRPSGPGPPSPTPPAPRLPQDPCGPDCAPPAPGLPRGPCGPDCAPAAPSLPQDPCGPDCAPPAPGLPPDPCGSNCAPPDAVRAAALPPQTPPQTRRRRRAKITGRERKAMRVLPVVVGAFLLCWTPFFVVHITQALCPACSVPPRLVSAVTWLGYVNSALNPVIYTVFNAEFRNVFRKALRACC

Sequence of D(2) dopamine receptor (P14416 whole entry): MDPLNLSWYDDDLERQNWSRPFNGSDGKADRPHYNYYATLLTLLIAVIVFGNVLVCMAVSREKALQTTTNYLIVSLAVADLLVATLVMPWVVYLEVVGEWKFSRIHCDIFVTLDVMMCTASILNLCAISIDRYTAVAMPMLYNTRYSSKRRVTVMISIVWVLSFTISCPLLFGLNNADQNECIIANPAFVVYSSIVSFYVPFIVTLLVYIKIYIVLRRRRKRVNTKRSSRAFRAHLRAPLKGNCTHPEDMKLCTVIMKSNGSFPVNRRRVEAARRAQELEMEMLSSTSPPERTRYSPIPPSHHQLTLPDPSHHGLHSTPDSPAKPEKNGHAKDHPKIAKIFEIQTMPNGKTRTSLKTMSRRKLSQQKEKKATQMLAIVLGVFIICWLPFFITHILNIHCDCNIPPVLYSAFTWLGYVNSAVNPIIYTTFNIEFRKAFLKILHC

As to `CCCN(CCC)C1C=Cc2c(OC)cccc2C1C` (configuration not stated) [CAS_5311190], the Ki (commonly a measure of affinity in units of concentration, obtained from inhibition or displacement) is 29.4 nM on D(2) dopamine receptor and 66.5 nM at D(4) dopamine receptor.
Compound `CN1CCN(CCCN2c3ccccc3Sc3ccc(C(F)(F)F)cc32)CC1` had a Ki at D(2) dopamine receptor of 1.1 nM.
`CC1CCN(CCCC(=O)c2ccc(F)cc2)CC1` [CAS_3575-80-2]: the Ki at D(4) dopamine receptor stood at 139 nM.
Same read-out and setting: in the case of `CN1CCN(C2=Nc3ccccc3Oc3ccc(Cl)cc32)CC1` [13-chloro-10-(4-methylpiperazin-1-yl)-2-oxa-9-azatricyclo[9.4.0.0^{3,8}]pentadeca-1(11),3,5,7,9,12,14-heptaene] it was 29 nM; in that of `CCCN1CCCC(c2cccc(O)c2)C1` (configuration not stated) [CAS_85976-54-1], 546 nM; in that of `CCN1CCC[C@H]1CNC(=O)c1c(O)c(Cl)cc(Cl)c1OC` [3,5-Dichloro-N-(1-ethyl-pyrrolidin-2-ylmethyl)-2-hydroxy-6-methoxy-benzamide (raclopride)], 1340 nM.
Still for that read-out and setting: in the case of `CCCOc1ccc2nc(NC(=O)OC)[nH]c2c1` [SMR000058208] it was 152 nM.
On to `CCCN[C@@H]1CCc2c(OC)cccc2[C@@H]1C`, for which the results for the Ki at D(2) dopamine receptor and at D(4) dopamine receptor were 120 nM and 132 nM, respectively.
The like results for `CCN(CC)C(=O)N[C@H]1C[C@@H]2c3cccc4[nH]cc(c34)C[C@H]2N(C)C1` were, in that order, 0.7 nM and 5.2 nM.
As for `CSc1ccc2c(c1)N(CC[C@@H]1CCCCN1C)c1ccccc1S2` [10-[2-(1-Methyl-piperidin-2-yl)-ethyl]-2-methylsulfanyl-10H-phenothiazine (thioridazine)], the Ki at D(4) dopamine receptor amounted to 22.9 nM.
Regarding `O=C(O)c1ccccc1C(=O)Nc1cccc2ccccc12` [NPA,(+)], the Ki at D(2) dopamine receptor was determined as 291 nM; on D(4) dopamine receptor, 120 nM.
The like results for `CN1C[C@@H](NC(=O)C(C)(C)C)CC2c3cccc4[nH]c(Cl)c(c34)C[C@H]21` (some centres not stated) [SDZ-208-912] were, in that order, 0.9 nM and 3.5 nM.
